# Entries after “also recorded” stand apart in the source; their conditions may differ.
# Legend:
# TLK1B = molecular target: T1, TLK1B (Homo sapiens, UniProt Q9UKI8); experiment: TLK1B kinase assay (auto kinase assay with γ 32P ATP; recombinant TLK1B with Rad9 peptide); assay type: biochemical; conditions: for activity on TLK (TLK kinase assays): inactive defined at concentrations <10 μM
# T1 sequence (Q9UKI8 1-549 isoform Q9UKI8-3): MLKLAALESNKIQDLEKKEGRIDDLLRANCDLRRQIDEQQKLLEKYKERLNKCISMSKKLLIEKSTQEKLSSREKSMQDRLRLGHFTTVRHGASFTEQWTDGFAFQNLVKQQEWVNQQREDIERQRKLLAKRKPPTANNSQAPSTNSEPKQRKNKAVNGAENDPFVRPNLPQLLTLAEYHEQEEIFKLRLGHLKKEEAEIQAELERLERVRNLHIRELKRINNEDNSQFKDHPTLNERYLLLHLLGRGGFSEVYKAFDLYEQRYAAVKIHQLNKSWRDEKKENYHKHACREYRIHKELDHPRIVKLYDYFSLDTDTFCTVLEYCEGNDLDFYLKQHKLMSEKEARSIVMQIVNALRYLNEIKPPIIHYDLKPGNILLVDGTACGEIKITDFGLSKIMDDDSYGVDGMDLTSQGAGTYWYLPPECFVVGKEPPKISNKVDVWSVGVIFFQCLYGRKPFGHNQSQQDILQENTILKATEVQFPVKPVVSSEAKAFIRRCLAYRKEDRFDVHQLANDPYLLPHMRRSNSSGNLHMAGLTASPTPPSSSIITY
# Protocol: To identify inhibitors of TLK, we developed a high throughput screen with recombinant TLK1B, a small Rad9 peptide and the ADP Hunter reagent (DiscoveRx). Using this assay, the Innovative North Louisiana Experimental Therapeutics (INLET) screening core (affiliated with the FWCC) screened the Prestwick library, two other proprietary libraries, and a subset of the ChemDiv library (˜6000 compounds).
# Following the initial fluorescent screen at a compound concentration of ˜5 μM, potential hits were tested with a more sensitive auto kinase assay with γ 32P ATP. Inhibition of auto phosphorylation was confirmed by TCA precipitable counts (FIG. 1A). The inhibitors are highly specific for TLKs. […] We have additional evidence for direct binding of these compounds to the recombinant protein (to be published elsewhere).
# TlK1 immune complexes isolated from […] protein extracts using abtiserum made in our lab and Protein A beads. Adsorbed proteins were washed twice in kinase assay buffer (KAB) (50 mM HEPES pH 7.2, 10 mM MgCl2, 5 mM MnCl2, 2.5 mM EGTA, 1 mM DTT, 1 mM NaF, 0.2 mM sodium o vanadate, […] leupeptin, 2 g/ml aprotinin) and incubated for 15-30 min at 30° C. in KAB supplemented with 10 µM ATP, 10 Ci [−32P]ATP (>5000 Ci/mmol, GE). The proteins were separated on 10% SDS-PAGE gels, transferred to nitrocellulose before exposure on a Phosphorlmager; and then processed for WB with TLK1 antiserum. For kinase assays with recombinant TLK1B protein, the reactions were similar, and carried out with 10 ng TLK1B and 50 ng Rad9 peptide substrate. These were carried out to confirm the initial “hits” from the screen and further to obtain accurate ID50 values for the various inhibitors.
# GST TLK1B = molecular target: T2, GST TLK1B (Homo sapiens, UniProt Q9UKI8); experiment: Binding to GST TLK1B affixed to Immobilon filter; conditions: color will not wash out
# T2 sequence (Q9UKI8 1-549 isoform Q9UKI8-3): T1 sequence (Q9UKI8 1-549 isoform Q9UKI8-3)
# Description: To determine how structurally related antipsychotic drugs might differ from each other and produce different biological effects, we analyzed optimized drug structures by quantum mechanics (QM) methods. Drugs of interest were built with MarvinSketch 5.3.2 (ChemAxon) for initial optimization of the 3D structure. For the panels shown here (Sup. FIG. 1), orbitals from the highest occupied molecular orbital (HOMO) and the lowest unoccupied molecular orbital (LUMO) have been depicted. […] The planar heterocyclic ring structure of staurosporine and its out of plane aminated glucose moiety are reminiscent of the structure of the phenothiazines. Bulky substituents on the main phenothiazine ring, such as fluorine groups, may only be tolerated in a certain orientation relative to the alkyl side chain, depending upon the reactivity of the side chain. Moreover, the fit at the binding site will be determined by whether active groups in the drugs (rings vs. side chains) serve as donors or acceptors in non bond interactions (e.g., it bonding and van der Waals interactions). While QM characterization of the drugs is not definitive, certain trends emerged from this analysis. In Sup. […] In fact, methylene blue, which stains nucleic acids but not most proteins, remains so tightly bound to GST TLK1B that after its affixation to an Immobilon filter the color bound to the protein will not wash out.
# D2 receptor = D2 receptor (Homo sapiens, UniProt P14416); conditions: cited from earlier work
# Sequence of D2 receptor (P14416 whole entry): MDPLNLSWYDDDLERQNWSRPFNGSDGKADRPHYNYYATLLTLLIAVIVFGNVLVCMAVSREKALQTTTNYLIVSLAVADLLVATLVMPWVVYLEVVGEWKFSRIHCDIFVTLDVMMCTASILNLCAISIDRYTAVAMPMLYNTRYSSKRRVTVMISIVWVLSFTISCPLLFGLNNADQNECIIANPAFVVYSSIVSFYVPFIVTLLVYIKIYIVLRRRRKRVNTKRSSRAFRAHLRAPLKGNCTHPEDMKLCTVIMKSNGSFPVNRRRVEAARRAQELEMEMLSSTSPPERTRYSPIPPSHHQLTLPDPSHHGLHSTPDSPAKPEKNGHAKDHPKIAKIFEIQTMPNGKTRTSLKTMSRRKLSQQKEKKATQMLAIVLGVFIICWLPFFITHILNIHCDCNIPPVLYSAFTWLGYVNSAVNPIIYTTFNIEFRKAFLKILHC
# [1] = system: Rad9 S328 phosphorylation in DU145 cells; experiment: Rad9 S328 phosphorylation and checkpoint markers in DU145 cells after H2O2; assay type: cell-based, human
# Protocol: The inhibitors worked as expected on the pattern of phosphorylation of Rad9 […]. After treatment of DU145 cells with H2O2 for 10 min to generate breaks, there is a corresponding wave of phosphorylation and dephosphorylation of […] after completion of repair (FIG. 5) that matches the pattern of activity of TLK1/1B TLKs are the only known kinases that phosphorylate Rad9 […] 4. Generation of DSBs causes transient inhibition of TLK1 and simultaneous synthesis of TLK1B, which then results in hyper phosphorylation of […] upon restoration of kinase activity [FIG. 5A; 5]. Once H2O2 is degraded and most DNA breaks are repaired, the phosphorylation returns to baseline. The inhibitors, PPH (LS125) in particular, blocked the activation of TLK and consequent phosphorylation of Rad9 ([…]) (5C). […] FIG. 5). A key role of TLKs is then to participate in restoration of cell cycle upon completion of repair. Interfering with this process has dire consequences for cell viability; more likely for cancer cells that are genetically more unstable and already have defects in DNA repair functions, if not just for their reliance on these kinases.
# PC 3 (human CaP cells) [2] = conditions: THD 0.25 mg daily oral gavage; doxo 1 mg/kg intraperitoneal days 54, 68, 95
# Protocol: PC 3 model. A study was undertaken to investigate the in vivo efficacy of THD compared to doxo and to determine any sensitization conferred to the tumor cells by treatment with a combination of the two drugs. Eighty male SCID/bg mice received 1×106 PC 3 (human CaP cells) cells subcutaneous into their flanks. At day 49 post s inoculation, we began weekly tumor measurements by caliper [volume=(L×W2)[…])]. […] At day 54, daily oral gavages of THD (0.25 mg in water) were given, and intraperitoneal injections of doxo (1 mg/kg; see arrows in FIG. 7) were at days 54, 68, and 95 (last day before euthanasia). […] In any case, the tumors were excised at the end of the experiment (before the control group tumors reached the preset end point of 1500 mm3) and processed for IHC analysis. The mice were dosed on last day before euthanasia with doxo to induce bona fide DSBs.
# PC 3 (human CaP cells) [3] = experiment: IHC analysis of excised PC 3 tumors; design: species or system SCID/bg mice; conditions: mouse, in vivo
# Description: Some features are immediately noticeable even upon H&E staining that could explain the tumor growth patterns. […] We interpret this as being the result of accumulation of DNA damage, including DSBs, which are not promptly repaired, even as they may be expected to occur spontaneously in many cells in the harsh environment of tumor growth. This has in fact been reported before and was attributed to localized hypoxia 24. […] The staining was not negative, as one may think, since inspection at higher magnification confirmed the expected pattern of exclusively nuclear staining and lower intensity in nucleoli. […] This is consistent with the γH2AX pattern, showing a large number of cells harboring repair foci, and thus likely arrested in replication (or progressing slowly through S phase). To further establish this, we looked at presence of RPA foci, which is indicative of stalled forks25. As expected from the large number of proliferating cells (PCNA positive) in control tumors, RPA1 Staining was very strong, and particularly in focal areas. RPA1 staining in tumors from doxo treated mice was interesting. […] In tumors from mice treated with doxo+THD, staining for RPA was very weak and consistent to that obtained for PCNA. […] However, we did stain for P Rad9 (S328) to confirm that the effects were mediated via TLK inhibition, in what we propose is part of a checkpoint deactivation mechanism following repair of spontaneous DNA damage. Indeed, numerous cells stained lightly for P Rad9 in untreated tumor cells in fact, they are perhaps a larger proportion than those staining for γH2AX that presumably represent cells with unrepaired DSBs.
# MDA 231-Luc = MDA 231-Luc xenograft model; assay type: in vivo; conditions: female SCID/bg mice, treatment groups as in PC 3 study
# Description: We used the breast cancer model cell line MDA 231-Luc, for more precise quantitation of tumor growth (photon emission is linear with the tumor cell number). Female SCID/bg mice (N=8 per group) received 1×10^6 cells and when the tumors reached ˜500 mm3 (˜104 photons/sec) they were assigned to four treatment groups, as in the study above (Sup. FIG. 4).
# [4] = system: kinase panel (KinomeScan); experiment: KinomeScan kinase panel (DiscoverRx); assay type: binding; conditions: significantly inhibited = >60% at 10 μM
# panel of cell lines = experiment: Doubling in a larger panel of cell lines; assay type: cell-based; conditions: inhibitor alone
# Description: inhibitors had generally similar potency in additive killing with doxo in both DU145 and PC3 (FIG. 6). The RMT potentiation is not limited to these two CaP cell lines, but is also true for MDA MB231 BCA cells (FIG. 6). […] The TLK inhibitors by themselves had little effect on MDA231 viability and doubling (Sup. FIG. 3). […] This is consistent with their proposed mechanism as inhibitors of DSB repair.
# cell cycle = experiment: Cell cycle and apoptosis, with or without doxo; assay type: cell-based; conditions: inhibitor alone, 15 μM
# Description: A matching experimental set was processed by WB for evidence of cleaved PARP, and possible effects on ClnD1 accumulation, which occurs in late G1 and throughout S phases. […] The
# [5] = system: stalled replication forks; experiment: Restart of stalled replication forks after release from hydroxyurea; assay type: cell-based; conditions: after release from hydroxyurea (HU)
# DNA PK = DNA PK (Homo sapiens, UniProt P78527); conditions: cited from earlier work
compound,measurement,setting,value
CN(C)c1ccc2nc3ccc(=[N+](C)C)cc-3sc2c1 [methylene blue],activity on TLK (TLK kinase assays),TLK1B,highly inhibitory
same,binding to GST TLK1B,GST TLK1B,tightly bound
"OCCN1CCN(CCCN2c3ccccc3Sc3ccc(C(F)(F)F)cc32)CC1 [FF, fluphenazine]",activity on TLK (TLK kinase assays),TLK1B,inactive for TLK
same,D2 receptor antagonism,D2 receptor,more potent D2 receptor antagonist than either TFP (active) or THD
"CCSc1ccc2c(c1)N(CCCN1CCN(C)CC1)c1ccccc1S2 [TEZ, thiethylperazine]",activity on TLK (TLK kinase assays),TLK1B,identified as TLK inhibitors
"CN1CCN(CCCN2c3ccccc3Sc3ccc(Cl)cc32)CC1 [PCP, prochlorperazine]",activity on TLK (TLK kinase assays),TLK1B,inactive
"OCCN1CCN(CCCN2c3ccccc3Sc3ccc(Cl)cc32)CC1 [PPH, perphenazine]",activity on TLK (TLK kinase assays),TLK1B,identified as TLK inhibitors
same,Chk1 activation (P Chk1 S345),[1]; H2O2,persistent activation of Chk1
same,cleavage of cdc25A,[1]; H2O2,elicited much faster
same,phosphorylation of Rad17,[1]; H2O2,prolonged phosphorylation of Rad17
same,activation of TLK and phosphorylation of Rad9 (S328),[1]; H2O2 for 10 min,blocked the activation of TLK and consequent phosphorylation of Rad9 (S328)
"COc1cccc2c1C(=O)c1c(O)c3c(c(O)c1C2=O)C[C@@](O)(C(=O)CO)C[C@@H]3O[C@H]1C[C@H](N)[C@H](O)[C@H](C)O1 [doxo, doxorubicin]",tumor growth,PC 3 (human CaP cells) [2],definite trend was seen for doxo reducing tumor growth
same,P Rad9 (S328) staining,PC 3 (human CaP cells) [3],much stronger staining for P Rad9
same,RPA staining,PC 3 (human CaP cells) [3],overall staining was weaker for most areas of the section
same,cellular density of the tumor (H&E staining),PC 3 (human CaP cells) [3],only slightly decreased the cellular density of the tumor
same,γH2AX positive cells,PC 3 (human CaP cells) [3],a large proportion
same,tumor growth (photon emission),MDA 231-Luc,insufficient to stop growth of tumors
"CSc1ccc2c(c1)N(CCC1CCCCN1C)c1ccccc1S2 (stereo not drawn) [THD, Thioridazine]",inhibition of other kinases in the panel,[4],no other kinase in the panel was significantly inhibited
same,activity on TLK (TLK kinase assays),TLK1B,active; also recorded: identified as TLK inhibitors
same,cell doubling / growth,panel of cell lines,not found very many cancer cell lines that were sensitive to THD
same,P Rad9 (S328) staining,PC 3 (human CaP cells) [3],severe suppression of P Rad9
same,PCNA positive cells,PC 3 (human CaP cells) [3],significantly fewer PCNA positive cells
same,cellular density of the tumor (H&E staining),PC 3 (human CaP cells) [3],clearly reduced the tumor density
same,γH2AX positive cells,PC 3 (human CaP cells) [3],a large proportion of positive staining cells
same,tumor growth (photon emission),MDA 231-Luc,effective at controlling tumor increase
c1ccc2c(c1)Nc1ccccc1S2 [phenothiazine],activity on TLK (TLK kinase assays),TLK1B,highly inhibitory
"CN1CCN(CCCN2c3ccccc3Sc3ccc(C(F)(F)F)cc32)CC1 [TFP, trifluoperazine]",activity on TLK (TLK kinase assays),TLK1B,active; also recorded: identified as TLK inhibitors
same,inhibition of TLKs,TLK1B; sub toxic concentrations 10-20 μM,completely inhibit TLKs
same,(apoptotic) sub G1 cells,cell cycle,very modest increase
same,cleaved PARP,cell cycle,very modest evidence of cleaved PARP
same,effect on the cell cycle,cell cycle,little effect on the cell cycle
same,restart of stalled replication forks and linked phosphorylation of Rad9 (S328),[5],greatly extends this process
same,DNA PK inhibition,DNA PK; TFP 10-20 μM,not inhibited
same,"reported inhibition of DNA PK in vitro, concentration",DNA PK; in vitro,0.1 to 0.2 mM
"CN(C)CCCN1c2ccccc2Sc2ccccc21 [PMZ, promazine]",activity on TLK (TLK kinase assays),TLK1B,identified as TLK inhibitors
same,D2 receptor antagonism,D2 receptor,does not have much activity as a D2 antagonist

# — patent US20150018294A1, “MODULATORS OF TOUSLED KINASE IN CELLULAR PROCESSES” (priority 2012, published 2015)
